Assay results taken from patent US7754751B2, “Preferential inhibition of release of pro-inflammatory cytokines” (Yung Shin Pharmaceutical Ind. Co., Ltd., priority 2004, dated 2010).

What was measured:
TNF-α = test: LPS-induced TNF-α release in human PBMC; type: cell-based; details: 10 μM compound with LPS 25 μg/ml, 24 h
Experimental: (§1) Approximately 450 ml of blood was obtained from healthy human volunteers and diluted with RPMI 1640 culture medium. A Ficoll gradient (MSL; Eurobio, les Ulis, France) was used to isolate human peripheral blood mononuclear leukocytes (PBMC). The volume ratio of blood, RPMI 1640 culture medium, and MSL was 2:4:1. PBMC were obtained by centrifuging the diluted blood at 500 g at 15° C. for 20 min and washed once with RPMI 1640. The cell pellets were resuspended at a final concentration of 6×10^6 cells/ml of the same medium supplemented with 5% heat-inactivated normal human serum (a pool of sera from healthy volunteers) and antibiotics (penicillin 100 UI/ml and streptomycin 100 μg/ml). Aliquots of 500 μl of the cell suspension were dispensed into each well of a 24-well plate and incubated at 37° C. in a 5% CO2-95% air incubator in a humidified atmosphere. To wells were added lipopolysaccharide (LPS, 25 μg/ml) from smooth E. Coli 0111:B4 alone or LPS and Compound 1 (10 μM) together. After 24 h, the supernatants were collected, centrifuged at 400 g for 10 min at 15° C. and stored at −20° C. Cytokines were assayed using commercial kits manufactured by R & D Systems (Abingdon, UK). The concentrations of the cytokines were determined using an internal standard according to the manufacturer's instructions.

interleukin 1β = test: LPS-induced interleukin 1β release in human PBMC; type: cell-based; details: 10 μM compound with LPS 25 μg/ml, 24 h
Experimental: as §1

interleukin 8 = test: LPS-induced interleukin 8 release in human PBMC; type: cell-based; details: 10 μM compound with LPS 25 μg/ml, 24 h
Experimental: as §1

interleukin-2 = test: LPS-induced interleukin-2 release in human PBMC; type: cell-based; details: 10 μM compound with LPS 25 μg/ml, 24 h
Experimental: as §1

interferon-γ = test: LPS-induced interferon-γ release in human PBMC; type: cell-based; details: 10 μM compound with LPS 25 μg/ml, 24 h
Experimental: as §1

interleukin-4 = test: LPS-induced interleukin-4 release in human PBMC; type: cell-based; details: 10 μM compound with LPS 25 μg/ml, 24 h
Experimental: as §1

interleukin-10 = test: LPS-induced interleukin-10 release in human PBMC; type: cell-based; details: 10 μM compound with LPS 25 μg/ml, 24 h
Experimental: as §1

NF-κB = NF-κB DNA binding activity in tissue nuclear extracts of LPS-treated mice (EMSA, ELISA-based Trans-AM p65 kit); type: in vivo; details: ICR mice, LPS 60 mg/kg i.p., compound 10 mg/kg orally in 0.5% carboxymethyl cellulose; lung, spleen, kidney extracts
Experimental: Mice (25-30 g, ICR strain) were injected intraperitoneally with LPS (60 mg/kg). Most of them were orally treated with Compound 1 (10 mg/kg) in 0.5% carboxymethyl cellulose, and the rest (control mice) were orally treated with vehicle. The control mice died within 27 h after the LPS administration. The mice were euthanatized with intraperitoneal administration of pentobarbital at various time intervals after the LPS administration. Nuclear extracts of lung, spleen, and kidney tissues were prepared by a standard method. NF-κB DNA binding activity was assessed by an electrophoretic mobility shift assay according to a procedure described in Pan et al., J Biomed Sci. 2002, 9: 622-630. […] The sample was then charged to native 5% polyacrylamide gels and analyzed by autoradiography. […] NF-κB DNA binding activity was also assessed with ELISA-based Trans-AM NF-κB p65 transcription factor assay kits (Active Motif Europe, […], Belgium) according to the manufacturer's instructions. […] Specificity of NF-κB activation was determined by competition experiments using NF-κB wild-type and mutant consensus oligonucleotides that were provided with the kit.

Q: How did the inhibition at 10 µM (TNF-α) turn out when `OCc1ccc(-c2nn(Cc3ccccc3)c3ccccc23)o1` [Compound 1, 3-(5′-hydroxymethyl-2′-furyl)-1-benzyl-indazol] was run?
A: > 80%

Q: And the inhibition at 10 µM (interleukin 1β)?
A: > 80%

Q: And the inhibition at 10 µM (interleukin 8)?
A: > 80%

Q: What about the inhibition at 10 µM (interleukin-2) of the same compound?
A: > 30%

Q: And the inhibition at 10 µM (interferon-γ)?
A: > 30%

Q: What about the inhibition at 10 µM (interleukin-4) of the same compound?
A: < 10%

Q: What about the inhibition at 10 µM (interleukin-10) of the same compound?
A: < 10%

Q: What about the “NF-κB/DNA complex level induced by LPS” value (NF-κB) of the same compound?
A: inhibited the increase of the NF-κB/DNA complex level induced by LPS
